Data on 15 compounds can be found in patent publication US20100284984A1, “ADENOSINE AND ITS MIMETICS. MODULATORS, TRANSPORT INHIBITORS, AND RECEPTOR AGONISTS AS A THERAPEUTIC TOOL TO REPLACE OR IMPROVE THE EFFICACY OF DEEP BRAIN STIMULATION” (University of Rochester, priority 2007, published 2010).

Entries after “also recorded” stand apart in the source; their conditions may differ. Like-named read-outs stand apart in the source and are kept apart here.

One test has as its target Rat Parotid Ecto-ATPase. The following applies: Dowd et al.; cited from earlier work.
For test [1], the target named is Ecto-ATPase. The following applies: Yegutkin et al., rat liver plasma membranes; cited from earlier work.
Test [2] concerns the target Ecto-ATPase. The following applies: Chen et al., cited from earlier work; for pIC 50: endothelial cells.
Test [3] deals with thalamic neurons. The experiment in a line: HFS-induced membrane depolarization of thalamic neurons. As to conditions: thalamic slices during HFS. It is filed as cell-based, mouse.
In another test the target is adenosine kinase (Homo sapiens, UniProt P55263). The following applies: cited from earlier work.
Chain of adenosine kinase (P55263 whole entry, species assumed): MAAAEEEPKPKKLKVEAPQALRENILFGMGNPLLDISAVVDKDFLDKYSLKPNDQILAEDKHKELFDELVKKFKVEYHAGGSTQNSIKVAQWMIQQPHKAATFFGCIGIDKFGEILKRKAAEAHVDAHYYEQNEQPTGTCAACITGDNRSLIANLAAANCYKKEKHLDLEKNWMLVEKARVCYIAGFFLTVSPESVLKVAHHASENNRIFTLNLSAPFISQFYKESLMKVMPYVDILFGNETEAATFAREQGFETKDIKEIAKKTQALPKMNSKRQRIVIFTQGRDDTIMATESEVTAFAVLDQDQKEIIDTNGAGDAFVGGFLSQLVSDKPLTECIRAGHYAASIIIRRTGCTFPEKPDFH
Test [4] concerns the target Nucleoside Triphosphate Diphosphohydrolases. As to conditions: Gendron et al.; cited from earlier work.
Test [5] concerns the target Ecto-ATPase. As to conditions: range over Crack et al.; Dowd et al.; Stout et al.; cited from earlier work.
In test [6] the test system is thalamic neurons. In words: Drug effect on evoked EPSPs (eEPSP) in thalamic slices, current clamp. It is filed as cell-based, mouse. The protocol: Thalamic slices (300 μm) from 14-18 day old mouse pups (FVB/NJ mice; Jackson Laboratory) were cut on a Vibratome (TPI) in an ice-cold cutting solution containing (in mM): 2.5 KCl, 1.25 NaH2PO4, 10 MgSO4, 5 CaCl2, 10 glucose, 26 NaHCO3, 230 sucrose and gassed with 5% CO2 and 95% O2. Slices were incubated for a minimum of 1 hr in a slice solution containing (in mM): 126 NaCl, 2.5 KCl, 1.25 NaH2PO4, 2 MgCl2, 2 CaCl2, 10 glucose, and 26 NaHCO3, pH 7.4, and gassed with 5% CO2 and 95% O2 at room temperature. The slices were transferred to a recording chamber (1.5 ml) perfused with aCSF at room temperature or 32° C. Whole-cell current clamp recordings were obtained using a 700B Multiclamp amplifier (Axon Instruments) (Jiang et al., “A Kainate Receptor Increases The Efficacy of Gabaergic Synapses,” Neuron 30:503-13 (2001); Tian et al., “An Astrocytic Basis of Epilepsy,” Nat Med 11:973-81 (2005), which are hereby incorporated by reference in their entirety). Concentric bipolar stimulating electrodes (FHC) were placed ˜100-400 μm ventromedial to the patched VL thalamic neuron. Stimulation was delivered through a constant isolated current source (ISO-Flex stimulus isolator with a Master-8-vp stimulator; AMPI) and consisted of monophasic 60 μs square pulses of varying amplitude (15, 25, 50 μA) and frequency (25, 75, 125, 200 Hz). Based upon maximum current amplitude and the surface area of the electrode, it is estimated that the maximum charge density was in the range of ˜1-10 μC/cm^2. The artifacts of the HFS signal were blanked and staggered to allow continuous observation of the 2.5 Hz signal (Anderson et al., “Selective Attenuation of Afferent Synaptic Transmission as a Mechanism of Thalamic Deep Brain Stimulation-Induced Tremor Arrest,” J Neurosci 26:841-50 (2006), which is hereby incorporated by reference in its entirety). Adenosine measurements were detected using needle shaped electrode (Pt/Ir wire) biosensors (Sarissa Biomedical). Calibration was carried out at the beginning and end of each slice experiment in the bath above the slice. Measurements were obtained ˜100 μm from the stimulation electrode in the thalamic slice. […].
To further analyze the role of adenosine in HFS, the effect of perfusion with an aCSF containing 1-100 μM adenosine in thalamic slices was studied. […]. […] The AMPA receptor antagonist, CNQX could not be tested due to its direct effect on EPSCs (Wang et al., “Astrocytic Ca(2+) Signaling Evoked by Sensory Stimulation in Vivo,” Nat Neurosci 9:816-23 (2006), which is hereby incorporated by reference in its entirety) (FIG. 3G). […]. […]

Another test deals with harmaline-induced tremor. In words: Harmaline-induced tremor, intrathalamic delivery by bilateral microdialysis probes. The following applies: for tremor activity: thalamus; for tremor following washout: after cessation of microdialysis of agonist; for time course of depression of tremor: microdialysis perfusion. It is filed as in vivo, mice. As to the method: Harmaline was administed i.p. 20 min prior to DBS (20-30 mg/kg) (Wilms et al., “Animal Models of Tremor,” Mov Disord 14:557-71 (1999); Martin et al., “Harmaline-Induced Tremor as a Potential Preclinical Screening Method for Essential Tremor Medications,” Mov Disord 20:298-305 (2005), which are hereby incorporated by reference in their entirety). 6-OHDA (3 μg/μl in saline containing 0.1% ascorbic acid) was injected in the right median forebrain bundle (AP: −1.2 mm; ML: ±1.1 mm; DV: −5.0 mm in a volume of 2 μl) (Jolicoeur et al., “Hypokinesia, Rigidity, and Tremor Induced by Hypothalamic 6-OHDA Lesions in The Rat,” Brain Res Bull 26:317-20 (1991), which are hereby incorporated by reference in their entirety) in mice anaesthetized with urethane (1.6 g/kg). Only animals that developed body tremor were included in the study. Tacrine was administered in a dose of 2.5 mg/kg i.p. and induced a robust jaw response with the peak frequency within the 3-5 Hz range (Cousins et al., “Tremulous Jaw Movements Induced by The Acetylcholinesterase Inhibitor Tacrine: Effects of Antiparkinsonian Drugs,” Eur J Pharmacol 322:137-45 (1997), which is hereby incorporated by reference in its entirety). […] For electrode and microdialysis implantation, mice were anaesthetized with a mixture of Ketamine (60 mg/kg) and Xylazine (10 mg/kg) and placed into a stereotactic frame. The skull was exposed and concentric bipolar microelectrodes (SNE-100, KOPF) or microdialysis probes (Bioanalytical Systems, Inc.) were implanted into the ventrolateral thalamic nucleus at the following coordinates: AP: −1.4 mm; ML: ±0.9 mm; DV: −3.7 mm. The electrodes or microdialysis probes were attached to the skull with dental cement. Following 24 hrs recovery, stimulation was delivered through a constant isolated current source (An ISO-Flex stimulus isolator with a Master-8-vp stimulator; AMPI) and consisted of monophasic 60 μs square pulses of varying amplitude (15, 25, 50 μA) and frequency (25, 75, 125, 200 Hz). The electrodes implanted in tremor patients has 4 contacts with a total surface area of 0.24 cm^2, an impedance ˜500 Ohm, and an upper limit of 30 μC/cm^2 in charge density (Kuncel et al., “Selection of Stimulus Parameters for Deep Brain Stimulation,” Clin Neurophysiol 115:2431-41 (2004), which is hereby incorporated by reference in its entirety). In mice, electrodes with a smaller tip (diameter 0.0055-0.250 mm, surface area 0.001-0.05 mm^2) were used and the current amplitude was adjusted to obtain charge density within the clinical range. Microdialysis probes were perfused 24 hrs after implantation using a microinjection pump (Harvard Apparatus Inc. USA) at a rate of 2 μl/min. The perfusion buffer contained (in mM): 138 NaCl, 1.5 K2HPO4, 2 CaCl2, 2 MgCl2, 10 HEPES, pH 7.3. […]. Tremor was recorded by either EMG electrodes placed in the occipital muscles or by the Convuls-1 pressure transducer (Columbus Instruments) in awake freely moving animals. […]. The mice were perfusion-fixed and sectioned on a vibratome (TPI) for confirmation of electrode or microdialysis probe placements.
[…]. Microdialysis probes were inserted bilaterally in thalamus 24-48 hrs prior to administration of harmaline. […].

In test [7] the test system is thalamic neurons. In words: HFS-induced depression of eEPSPs in thalamic slices, pharmacology. The following applies: 50 μM; HFS 250 μA, 100 μs, 5 sec, 20° C. The test is classed as cell-based, mouse.

For orientation: IC50 means the concentration that inhibits the measured activity by half. The Ki is a measure of affinity in units of concentration, obtained from inhibition or displacement.

Consider reactive blue, for which the concentration for half-maximal inhibition (IC50) at Rat Parotid Ecto-ATPase was 28 µM. Also, the “pIC 50” value at Ecto-ATPase [1] is reported as 4.3.

As to `Nc1ncnc2c1ncn2[C@@H]1O[C@H](CO[P@](=O)(O)O[P@](=O)(O)O[P@@](=O)(O)S)[C@@H](O)[C@H]1O` [ATPyS], on Ecto-ATPase [2], the “pIC 50” value is 5.2.

As for `N#Cc1cc2[nH]c(=O)c(=O)[nH]c2cc1[N+](=O)[O-]` [CNQX], in the test with thalamic neurons [3], the “HFS-induced change of neuronal membrane potential (depolarization / hyperpolarization)” value was 15.91±4.53 mV.

Consider `Nc1ncnc2c1c(Br)cn2C1CC(N)C(O)C1O` (stereo not drawn) [A-286501, N7-((1′R,2′S,3′R,4′S)-2′,3′-dihydroxy-4′-amino-cyclopentyl)-4-amino-5-bromo-pyrrolo[2,3-a]pyrimidine], for which the IC50 at adenosine kinase is 0.47 nM.

On to 8-CH2BuS-ATP, for which the Ki in test [4] was 45 µM.

As to `O=S(=O)(O)c1cc(N=C=S)ccc1C=Cc1ccc(N=C=S)cc1S(=O)(=O)O` [DIDS, 4,4′diisothiocyanatostilbene-2,2′disulphonec acid], the IC50 at Rat Parotid Ecto-ATPase is 150 µM.

Regarding `Cc1ccc(C(=O)Nc2ccc(S(=O)(=O)O)c3cc(S(=O)(=O)O)cc(S(=O)(=O)O)c23)cc1NC(=O)c1cccc(NC(=O)Nc2cccc(C(=O)Nc3cc(C(=O)Nc4ccc(S(=O)(=O)O)c5cc(S(=O)(=O)O)cc(S(=O)(=O)O)c45)ccc3C)c2)c1` [suramin], on Ecto-ATPase [2], the inhibition constant (Ki) is 44 µM. The IC50 on Ecto-ATPase [5] was 46 to 114 µM. Also, the “pIC 50” value at Ecto-ATPase [1] is 4.57.

For the compound `CCOc1ccc(Nc2ccc(C(=C3C=CC(=[N+](CC)Cc4cccc(S(=O)(=O)[O-])c4)C=C3)c3ccc(N(CC)Cc4cccc(S(=O)(=O)O)c4)cc3)cc2)cc1` [Coomassie brilliant blue R], at Rat Parotid Ecto-ATPase, the IC50 was 114 µM.

Turning to `CCCCSc1nc2c(N)ncnc2n1[C@@H]1O[C@H](COP(=O)(O)OP(=O)(O)OP(=O)(O)O)[C@@H](O)[C@H]1O` [8-Bus-ATP], the Ki in test [4] is 10 µM.

Take `Nc1ncnc2c1ncn2[C@@H]1O[C@H](COP(=O)(O)CP(=O)(O)OP(=O)(O)O)[C@@H](O)[C@H]1O` [α,β-MeATP]: the “pIC 50” value at Ecto-ATPase [2] is 4.5.

`Nc1ncnc2c1ncn2[C@@H]1O[C@H](CO)[C@@H](O)[C@H]1O` [adenosine]: the EC50 in the test with thalamic neurons [6] (Mus musculus, Neuron, aCSF containing 1-100 μM adenosine, read-out: ED50 for depression of eEPSP amplitude) turned out to be 3.35 ± 0.75 µM. For the same compound, the “maximal reduction of eEPSP amplitude” value with thalamic neurons [6] (aCSF containing 1-100 μM adenosine) is given as 76.13±6.47 % of control values. In the test with harmaline-induced tremor (adenosine 1-10 mM in microdialysis perfusate), the tremor activity result is “reduced tremor activity with a potency comparable to DBS”. Further, in the test with harmaline-induced tremor, the tremor following washout result was “rebound effect was often observed” and the “time course of depression of tremor” value is “developed slowly over minutes”.

`N[C@@H](CCCP(=O)(O)O)C(=O)O` [APV]: the “effect on HFS-induced depression of eEPSPs (FIG. 3G)” value in the test on thalamic neurons [7] is reported as “no significant effect”. For the same compound, in the test on thalamic neurons [3], the “HFS-induced change of neuronal membrane potential (depolarization / hyperpolarization)” value was 18.15±6.69 mV.

Take `Nc1ncnc2c1ncn2[C@@H]1O[C@H](COP(=O)(O)OP(=O)(O)NP(=O)(O)O)[C@@H](O)[C@H]1O` [AMP-PNP]: the “pIC 50” value at Ecto-ATPase [2] is reported as 4.0.

For the compound `Nc1ncnc2c1c(I)cn2[C@@H]1C[C@H](N)[C@@H](O)[C@H]1O` [A-134974], the IC50 on adenosine kinase (McGaraughty et al.) is 0.06 nM.

For the compound `OC[C@H]1O[C@@H](n2cnc3c(NC4CCCC4)nc(Cl)nc32)[C@H](O)[C@@H]1O` [CCPA, 2-chloro-N6-cyclopentyladenosine], in the test with thalamic neurons [6] (1.0 μM), the “depression of eEPSPs” value is on record as 75.59±4.98%. Also, the tremor activity result in the test with harmaline-induced tremor (CCPA 10-100 μM in microdialysis perfusate) was “attenuated; also recorded: reduced tremor activity with a potency comparable to DBS”. Further, in the test with harmaline-induced tremor, the tremor following washout result was “rebound effect was often observed” and the “time course of depression of tremor” value is given as “developed slowly over minutes”.
